Data from patent US10131652B2, “Pyrimidinyloxy benzene derivatives as herbicides” (E. I. DU PONT DE NEMOURS AND COMPANY, priority 2014, dated 2018).

Assays:
Format in all cases: in vivo
[1] = tested on: barnyardgrass (Echinochloa crus-galli); assay: Test B pre-/postemergence plant response
Summary of the method: (§1)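 Steps: plant seeds in loam soil–sand mix; spray soil preemergence, and in parallel spray 2–10 cm one- to two-leaf plants postemergence; hold ~10 days in greenhouse; visually rate injury against untreated controls (0 = no effect, 100 = complete control).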

corn (Zea mays) [2] = assay: Test B pre-/postemergence plant response
Summary of the method: as §1

[3] = tested on: giant foxtail (Setaria faberii); assay: Test B pre-/postemergence plant response
Summary of the method: as §1

[4] = tested on: pigweed (Amaranthus retroflexus); assay: Test B pre-/postemergence plant response
Summary of the method: as §1

[5] = tested on: wheat (Triticum aestivum); assay: Test B pre-/postemergence plant response
Summary of the method: as §1

[6] = tested on: Italian ryegrass (Lolium multiflorum); assay: Test D pre-/postemergence plant response; conditions: for Plant response rating, Ryegrass, Italian: Preemergence
Summary of the method: (§2)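 Test chemicals were formulated in a non-phytotoxic solvent mixture containing surfactant and applied either preemergence to seeds in loam–sand soil or postemergence to plants 2 to 18 cm tall (1- to 4-leaf stage). Response was rated visually against controls after 13 to 15 days, from 0 (none) to 100 (complete control).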

corn (Zea mays) [7] = assay: Test D pre-/postemergence plant response; conditions: for Plant response rating (scale 0 to 100), Corn / Corn plant response rating: Postemergence; for Corn plant response rating / Plant response rating, Corn: scale 0 to 100 (0 no effect, 100 complete control); for Plant response rating, Corn: Preemergence
Summary of the method: as §2

[8] = tested on: galium (catchweed bedstraw, Galium aparine); assay: Test D pre-/postemergence plant response; conditions: for Plant response rating, Galium: Preemergence
Summary of the method: as §2

[9] = tested on: lambsquarters (Chenopodium album); assay: Test D pre-/postemergence plant response; conditions: for Plant response rating, Lambsquarters: Preemergence
Summary of the method: as §2

[10] = tested on: large (Lg) crabgrass (Digitaria sanguinalis); assay: Test D pre-/postemergence plant response; conditions: for Plant response rating (scale 0 to 100), Crabgrass, Large / Crabgrass, Large plant response rating: Postemergence; for Crabgrass, Large plant response rating / Plant response rating, Crabgrass, Large: scale 0 to 100 (0 no effect, 100 complete control); for Plant response rating, Crabgrass, Large: Preemergence
Summary of the method: as §2

[11] = tested on: morningglory (Ipomoea coccinea); assay: Test D pre-/postemergence plant response; conditions: for Plant response rating, Morningglory: Preemergence
Summary of the method: as §2

[12] = tested on: ragweed (common ragweed, Ambrosia elatior); assay: Test D pre-/postemergence plant response; conditions: for Plant response rating, Ragweed: Preemergence
Summary of the method: as §2

soybean (Glycine max) = assay: Test D pre-/postemergence plant response; conditions: for Plant response rating, Soybean: Preemergence
Summary of the method: as §2

[13] = tested on: waterhemp (common waterhemp, Amaranthus rudis); assay: Test D pre-/postemergence plant response; conditions: for Plant response rating, Waterhemp: Preemergence
Summary of the method: as §2

[14] = tested on: winter wheat (Triticum aestivum); assay: Test D pre-/postemergence plant response; conditions: for Plant response rating, Wheat: Preemergence
Summary of the method: as §2

[15] = tested on: yellow nutsedge (Cyperus esculentus); assay: Test D pre-/postemergence plant response; conditions: for Plant response rating, Nutsedge, Yellow: Preemergence
Summary of the method: as §2

[16] = 125 g ai/ha, postemergence, 0 to 100 scale, 0 no effect, 100 complete control
[17] = Postemergence, 500 g ai/ha, 0 to 100 scale (0 no effect, 100 complete control)
[18] = Preemergence, 125 g ai/ha, 0 to 100 scale (0 no effect, 100 complete control)
[19] = Preemergence, 500 g ai/ha, 0 to 100 scale where 0 is no effect and 100 is complete control
[20] = Postemergence, 31 g ai/ha, scale 0 to 100 (0 no effect, 100 complete control)
[21] = 4 g ai/ha, scale 0 to 100 (0 no effect, 100 complete control)
[22] = 8 g ai/ha, scale 0 to 100 (0 no effect, 100 complete control)
[23] = 16 g ai/ha, scale 0 to 100 (0 no effect, 100 complete control)
[24] = 31 g ai/ha, scale 0 to 100 (0 no effect, 100 complete control)

SMILES: N#Cc1cccc(Oc2ncc(Cl)cn2)c1-c1cc(C(F)(F)F)on1 [Compound 157]
- Plant response rating, Barnyardgrass [1, 16]: 20
- Plant response rating, Barnyardgrass [1, 17]: 60
- Barnyardgrass plant response rating [1, 18]: 20
- Plant response rating, Barnyardgrass [1, 19]: 80
- Plant response rating, Corn (corn (Zea mays) [2]; [16]): 0
- Plant response rating, Corn (corn (Zea mays) [2]; [17]): 40
- Plant response rating, Foxtail, Giant [3, 16]: 70
- Plant response rating, Foxtail, Giant [3, 17]: 80
- Foxtail, Giant plant response rating [3, 18]: 80
- Plant response rating, Foxtail, Giant [3, 19]: 100
- Plant response rating, Pigweed [4, 16]: 100
- Plant response rating, Pigweed [4, 17]: 100
- Pigweed plant response rating [4, 18]: 100
- Plant response rating, Pigweed [4, 19]: 100
- Plant response rating, Wheat [5, 16]: 50
- Plant response rating, Wheat [5, 17]: 70
- Plant response rating (scale 0 to 100), Ryegrass, Italian ([6]; Postemergence, 4 g ai/ha): 0
- Plant response rating (scale 0 to 100), Ryegrass, Italian ([6]; Postemergence, 8 g ai/ha): 0
- Ryegrass, Italian plant response rating [6, 20]: 5
- Plant response rating, Ryegrass, Italian [6, 21]: 0
- Plant response rating, Ryegrass, Italian [6, 22]: 0
- Plant response rating, Ryegrass, Italian [6, 23]: 0
- Plant response rating, Ryegrass, Italian [6, 24]: 5
- Plant response rating (scale 0 to 100), Corn (corn (Zea mays) [7]; 4 g ai/ha): 0
- Plant response rating (scale 0 to 100), Corn (corn (Zea mays) [7]; 8 g ai/ha): 0
- Corn plant response rating (corn (Zea mays) [7]; 16 g ai/ha): 5
- Corn plant response rating (corn (Zea mays) [7]; 31 g ai/ha): 5
- Plant response rating, Corn (corn (Zea mays) [7]; 4 g ai/ha): 0
- Plant response rating, Corn (corn (Zea mays) [7]; 8 g ai/ha): 0
- Plant response rating, Corn (corn (Zea mays) [7]; 16 g ai/ha): 5
- Plant response rating, Corn (corn (Zea mays) [7]; 31 g ai/ha): 0
- Plant response rating (scale 0 to 100), Galium ([8]; Postemergence, 4 g ai/ha): 10
- Plant response rating (scale 0 to 100), Galium ([8]; Postemergence, 8 g ai/ha): 50
- Galium plant response rating [8, 20]: 70
- Plant response rating, Galium [8, 21]: 70
- Plant response rating, Galium [8, 22]: 80
- Plant response rating, Galium [8, 23]: 80
- Plant response rating, Galium [8, 24]: 85
- Plant response rating (scale 0 to 100), Lambsquarters ([9]; Postemergence, 4 g ai/ha): 20
- Plant response rating (scale 0 to 100), Lambsquarters ([9]; Postemergence, 8 g ai/ha): 25
- Lambsquarters plant response rating [9, 20]: 55
- Plant response rating, Lambsquarters [9, 21]: 0
- Plant response rating, Lambsquarters [9, 22]: 25
- Plant response rating, Lambsquarters [9, 23]: 100
- Plant response rating, Lambsquarters [9, 24]: 100
- Plant response rating (scale 0 to 100), Crabgrass, Large ([10]; 4 g ai/ha): 0
- Plant response rating (scale 0 to 100), Crabgrass, Large ([10]; 8 g ai/ha): 5
- Crabgrass, Large plant response rating ([10]; 16 g ai/ha): 5
- Crabgrass, Large plant response rating ([10]; 31 g ai/ha): 5
- Plant response rating, Crabgrass, Large ([10]; 4 g ai/ha): 0
- Plant response rating, Crabgrass, Large ([10]; 8 g ai/ha): 0
- Plant response rating, Crabgrass, Large ([10]; 16 g ai/ha): 5
- Plant response rating, Crabgrass, Large ([10]; 31 g ai/ha): 40
- Plant response rating (scale 0 to 100), Morningglory ([11]; Postemergence, 4 g ai/ha): 0
- Plant response rating (scale 0 to 100), Morningglory ([11]; Postemergence, 8 g ai/ha): 5
- Morningglory plant response rating [11, 20]: 35
- Plant response rating, Morningglory [11, 21]: 0
- Plant response rating, Morningglory [11, 22]: 0
- Plant response rating, Morningglory [11, 23]: 0
- Plant response rating, Morningglory [11, 24]: 10
- Plant response rating (scale 0 to 100), Ragweed ([12]; Postemergence, 4 g ai/ha): 50
- Plant response rating (scale 0 to 100), Ragweed ([12]; Postemergence, 8 g ai/ha): 15
- Ragweed plant response rating [12, 20]: 25
- Plant response rating, Ragweed [12, 21]: 0
- Plant response rating, Ragweed [12, 22]: 0
- Plant response rating, Ragweed [12, 23]: 0
- Plant response rating, Ragweed [12, 24]: 0
- Plant response rating (scale 0 to 100), Soybean (soybean (Glycine max); Postemergence, 4 g ai/ha): 5
- Plant response rating (scale 0 to 100), Soybean (soybean (Glycine max); Postemergence, 8 g ai/ha): 10
- Soybean plant response rating (soybean (Glycine max); [20]): 35
- Plant response rating, Soybean (soybean (Glycine max); [21]): 0
- Plant response rating, Soybean (soybean (Glycine max); [22]): 0
- Plant response rating, Soybean (soybean (Glycine max); [23]): 0
- Plant response rating, Soybean (soybean (Glycine max); [24]): 50
- Plant response rating (scale 0 to 100), Waterhemp ([13]; Postemergence, 4 g ai/ha): 20
- Plant response rating (scale 0 to 100), Waterhemp ([13]; Postemergence, 8 g ai/ha): 55
- Waterhemp plant response rating [13, 20]: 75
- Plant response rating, Waterhemp [13, 21]: 0
- Plant response rating, Waterhemp [13, 22]: 70
- Plant response rating, Waterhemp [13, 23]: 100
- Plant response rating, Waterhemp [13, 24]: 100
- Plant response rating (scale 0 to 100), Wheat ([14]; Postemergence, 4 g ai/ha): 0
- Plant response rating (scale 0 to 100), Wheat ([14]; Postemergence, 8 g ai/ha): 0
- Wheat plant response rating [14, 20]: 0
- Plant response rating, Wheat [14, 21]: 0
- Plant response rating, Wheat [14, 22]: 0
- Plant response rating, Wheat [14, 23]: 0
- Plant response rating, Wheat [14, 24]: 5
- Plant response rating (scale 0 to 100), Nutsedge, Yellow ([15]; Postemergence, 4 g ai/ha): 0
- Plant response rating (scale 0 to 100), Nutsedge, Yellow ([15]; Postemergence, 8 g ai/ha): 5
- Nutsedge, Yellow plant response rating [15, 20]: 10
- Plant response rating, Nutsedge, Yellow [15, 21]: 0
- Plant response rating, Nutsedge, Yellow [15, 22]: 0
- Plant response rating, Nutsedge, Yellow [15, 23]: 0
- Plant response rating, Nutsedge, Yellow [15, 24]: 0
